“Also recorded” adds a separate entry of the source. Marks after values point to notes of the source that are not given here.
Assays:
Assay type in all cases: in vivo, human
TNF-α = TNF-α synthesis in LPS-treated whole blood; conditions: mean ± SD
Description: (§1) Following a 3-week run-in period, subjects ingested either ALA, SDA, EPA supplied as ethyl esters in capsules. Intakes were 0.75 g/day for 3 weeks followed by 1.5 g/day for the subsequent 3 weeks.
(§2) Blood (4 mL) was added to heparinised tubes, bacterial lipopolysaccharide (LPS) was added (200 ng/mL), and the mixture was incubated at 37° C., 5% CO2, for 24 h. Plasma was collected and assayed for prostaglandin E2 (PGE2) by radioimmunoassay (RIA), interleukin-1β (IL-1β) and tumor necrosis factor-α (TNF-α) by ELISA, as described in Mantzioris et al., supra.

prostaglandin E2 (PGE2) = experiment: PGE2 synthesis in LPS-stimulated whole blood; conditions: for PGE2 synthesis in LPS-stimulated whole blood: mean ± SD
Description: as §1, §2

IL-1β = IL-1β synthesis in LPS-treated whole blood; conditions: mean ± SD
Description: as §1, §2

[1] = Fatty acid analysis of blood cell phospholipids and plasma lipid fractions after ingestion of test fatty acids; conditions: for DHA (% of total fatty acids), Erythrocyte phospholipid / DHA (% of total fatty acids), Plasma phospholipid / DPA (% of total fatty acids), Erythrocyte phospholipid / DPA (% of total fatty acids), Plasma phospholipid / EPA (% of total fatty acids), Monocyte / EPA (% of total fatty acids), Plasma CE / EPA (% of total fatty acids), Plasma Phospholipid / EPA (% of total fatty acids), Plasma TG / EPA (% of total fatty acids), Platelet / EPA (% of total fatty acids), Red Blood: both, human, in vivo
From the text: 45 males and post-menopausal female—19–65 years of age, normolipidemic, and with a body mass index (BMI) in the range 20 to 30, were recruited. Exclusion criteria included bleeding disorders, hypertension, inflammatory disorders, active gastrointestinal diseases, chronic use of low dose aspirin, consumption of restaurant or takeaway evening meals more than twice per week, use of dietary supplements rich in n-3 or n-6 fatty acids, habitual consumption of more than 1 fish meal per month, and plasma phospholipid EPA+DHA levels>7.9% of total fatty acids (level achieved in the study group was 4.9±1.0% of total fatty acids).
as §1
At each visit, 36 mL of blood was taken by venepuncture after an overnight fast. Blood was aliquoted into various tubes for the following procedures.
Blood (20 mL) was added to tubes containing 4 mL 4.5% EDTA in water and 4 mL—6% dextran in normal saline, pH 7.0. Erythrocytes were allowed to sediment under gravity at 37° C. for 30 min. The leucocyte-rich plasma was layered onto LYMPHOPREP, density 1.077 (Nycomed Pharma, Oslo) and centrifuged at 110 g for 10 min to separate leucocytes from the platelets, which were removed. The gradient was further centrifuged at 200 g for 20 min to separate the neutrophils from mononuclear cells, which were removed.
Samples were processed for fatty acid analysis as described in Mantzioris et al., Am. J. Clin. Nutr., 72:42–8 (2000). Plasma, washed platelet and mononuclear cell pellets were stored at −80° C. Erythrocyte pellets were treated fresh with chloroform:isopropanol (2:1) and the lipid extracts stored at 4° C. Plasma, platelet and mononuclear cell pellets were extracted with chloroform:methanol. The cellular and plasma lipid extracts were fractionated by thin-layer chromatography. For the cellular extracts, the phospholipid fraction was retained and for the plasma extracts, the phospholipid, cholesterol ester, and triglyceride fractions were retained. These were transesterified by methanolysis (1% H2SO4 in methanol at 70° C. for 3 h). Fatty acid methyl esters were separated and quantified with a HEWLETT-PACKARD 6890 gas chromatograph equipped with a 50 m capillary column coated with BPX-70 (0.25 μm film thickness; SGE Pty Ltd, Victoria, Australia) (see Mantzioris et al., supra). Fatty acid standards were obtained from NuChek Prep Inc. (Elysian, Minn.) and included stearidonic acid obtained from Sigma Aldrich Pty Ltd. (Castle Hill, NSW, Australia). All organic solvents contained butylated hydroxy anisole (0.005%) as an antioxidant.

[2] = Week 3 (after 0.75 g/day for 3 weeks)
[3] = Week 6 (after 1.5 g/day for 3 weeks)
[4] = Week −3 (start of run-in, before dosing)

Effect on DPA concentration in the phospholipid fractions of erythrocytes and plasma ([1]; 0.75 g/day): significantly increased
Effect on EPA concentration in the phospholipid fractions of erythrocytes and plasma ([1]; 0.75 g/day (weeks 0 to 3)): significantly increased
DHA (% of total fatty acids), Erythrocyte phospholipid ([1]; 0 week): 4.62 ± 0.69^b % of total fatty acids
DHA (% of total fatty acids), Plasma phospholipid ([1]; 0 weeks): 3.75 ± 0.77^ab % of total fatty acids
DPA (% of total fatty acids), Erythrocyte phospholipid ([1]; 0 weeks): 2.81 ± 0.24^a % of total fatty acids
DPA (% of total fatty acids), Plasma phospholipid ([1]; 0 weeks): 1.34 ± 0.22^a % of total fatty acids
EPA (% of total fatty acids), Monocyte ([1]; 0 weeks): 0.52 (0.11)a % of total fatty acids
EPA (% of total fatty acids), Plasma CE ([1]; 0 weeks): 1.02 (0.20)a % of total fatty acids
EPA (% of total fatty acids), Plasma Phospholipid ([1]; 0 weeks): 1.04 (0.23)a % of total fatty acids
EPA (% of total fatty acids), Plasma TG ([1]; 0 weeks): 0.27 (0.09)a % of total fatty acids
EPA (% of total fatty acids), Platelet ([1]; 0 weeks): 0.45 (0.09)a % of total fatty acids
EPA (% of total fatty acids), Red Blood ([1]; 0 weeks): 0.81 (0.14)^a % of total fatty acids
EPA (% of total fatty acids), Monocyte ([1]; 3 weeks): 1.38 (0.35)b1 % of total fatty acids
EPA (% of total fatty acids), Plasma CE ([1]; 3 weeks): 2.95 (0.74)b1 % of total fatty acids
EPA (% of total fatty acids), Plasma Phospholipid ([1]; 3 weeks): 2.71 (0.71)b1 % of total fatty acids
EPA (% of total fatty acids), Plasma TG ([1]; 3 weeks): 0.73 (0.20)b1 % of total fatty acids
EPA (% of total fatty acids), Platelet ([1]; 3 weeks): 1.08 (0.26)b1 % of total fatty acids
EPA (% of total fatty acids), Red Blood ([1]; 3 weeks): 1.60 (0.31)^b1 % of total fatty acids
EPA (% of total fatty acids), Monocyte ([1]; 6 weeks): 2.25 (0.74)c1 % of total fatty acids
EPA (% of total fatty acids), Plasma CE ([1]; 6 weeks): 4.53 (1.31)c1 % of total fatty acids
EPA (% of total fatty acids), Plasma Phospholipid ([1]; 6 weeks): 4.48 (1.35)c1 % of total fatty acids
EPA (% of total fatty acids), Plasma TG ([1]; 6 weeks): 1.23 (0.47)c1 % of total fatty acids
EPA (% of total fatty acids), Platelet ([1]; 6 weeks): 1.68 (0.43)c1 % of total fatty acids
EPA (% of total fatty acids), Red Blood ([1]; 6 weeks): 2.56 (0.65)^c1 % of total fatty acids
DHA (% of total fatty acids), Erythrocyte phospholipid ([1]; -3 week): 5.02 ± 0.89^a1,2 % of total fatty acids
DHA (% of total fatty acids), Plasma phospholipid ([1]; -3 weeks): 3.97 ± 1.06^a % of total fatty acids
DPA (% of total fatty acids), Erythrocyte phospholipid ([1]; -3 weeks): 2.92 ± 0.45^a1,2 % of total fatty acids
DPA (% of total fatty acids), Plasma phospholipid ([1]; -3 weeks): 1.31 ± 0.29^a % of total fatty acids
EPA (% of total fatty acids), Monocyte ([1]; -3 weeks): 0.66 (0.32)^a % of total fatty acids
EPA (% of total fatty acids), Plasma CE ([1]; -3 weeks): 1.03 (0.34)^a % of total fatty acids
EPA (% of total fatty acids), Plasma Phospholipid ([1]; -3 weeks): 1.10 (0.40)^a % of total fatty acids
EPA (% of total fatty acids), Plasma TG ([1]; -3 weeks): 0.31 (0.15)^a % of total fatty acids
EPA (% of total fatty acids), Platelet ([1]; -3 weeks): 0.44 (0.12)^a % of total fatty acids
EPA (% of total fatty acids), Red Blood ([1]; -3 weeks): 0.85 (0.16)^a % of total fatty acids
Effect on tissue levels of DHA (FIG. 1) ([1]; erythrocytes and plasma phospholipids, 1.5 g/day): decreased
SMILES: CC/C=C\C/C=C\C/C=C\C/C=C\C/C=C\CCCC(=O)O [EPA, eicosapentaenoic acid]
TNF-α synthesis in LPS-treated whole blood (TNF-α; Week 0 (baseline)): 38.9 ± 12.5^a ng/mL
TNF-α synthesis in LPS-treated whole blood (TNF-α; [2]): 32.0 ± 11.8^ab ng/mL
TNF-α synthesis in LPS-treated whole blood (TNF-α; [3]): 27.6 ± 10.6^b ng/mL
TNF-α synthesis in LPS-treated whole blood (TNF-α; [4]): 36.6 ± 16.53^a1,2 ng/mL
PGE2 synthesis in LPS-stimulated whole blood (prostaglandin E2 (PGE2); Week 0 (baseline)): 4.21 ± 1.59 ng/mL
PGE2 synthesis in LPS-stimulated whole blood (prostaglandin E2 (PGE2); [2]): 5.05 ± 2.16 ng/mL
PGE2 synthesis in LPS-stimulated whole blood (prostaglandin E2 (PGE2); [3]): 4.46 ± 1.47 ng/mL
PGE2 synthesis in LPS-stimulated whole blood (prostaglandin E2 (PGE2); [4]): 3.78 ± 1.95^1,2 ng/mL
Effect on LPS-stimulated PGE2 synthesis (prostaglandin E2 (PGE2); overall, either dose): no effect
IL-1β synthesis in LPS-treated whole blood (IL-1β; Week 0 (baseline)): 92.0 ± 25.4^a ng/mL
IL-1β synthesis in LPS-treated whole blood (IL-1β; [2]): 75.3 ± 27.6^b ng/mL
IL-1β synthesis in LPS-treated whole blood (IL-1β; [3]): 73.5 ± 16.4^b ng/mL
IL-1β synthesis in LPS-treated whole blood (IL-1β; [4]): 93.1 ± 26.8^a1,b ng/mL
Effect on DPA concentration in the phospholipid fractions of erythrocytes and plasma ([1]; 1.5 g/day): significantly increased; also recorded: elevated
Effect on EPA concentration in the phospholipid fractions of erythrocytes and plasma ([1]; 1.5 g/day (weeks 3 to 6)): significantly increased; also recorded: elevated
Change in erythrocyte DHA ([1]; higher dose (1.5 g/day)): slight, but statistically significant decrease
